Data set [1] relates to phosphorylated ATM and H2AX. The data set is described as follows: Flow cytometry of phosphorylated ATM and H2AX (DNA double strand breaks). Conditions: 1 μCi/mL. The format is cell-based. On the procedure: To accomplish this, γH2AX and PARP-1 were measured after being treated NLF cells for 1, 4, or 24 hours at doses of 0.1, or 1 μCi/mL. Data was analyzed by quantifying small regions of interest in the nucleus of cells and by nuclear co-localization. […] In flow cytometry experiments, DNA damage was measured by quantifying phosphorylated ATM and H2AX. Lastly, cell cycle analysis was evaluated using propidium iodide staining in control vs. [^211At]-Compound 1 treated cells.

A further data set relates to neuroblastoma cell lines. The data set is described as follows: Cell viability dose response curves in neuroblastoma cell lines. The format is cell-based. Conditions: in vitro, FIG. 2A. How it is done:
Two sets of cell viability assays were performed to characterize [^211At]-Compound 1 in neuroblastoma, ovarian, and breast cancer cells. […] The first assay performed was a screen of 25 cell lines at a single concentration of 5 μCi/mL. […] Following treatment cell viability was assessed using a commercially available kit that measures ATP and data was normalized to healthy controls to produce % surviving fraction. […] Cells were treated for 72 hrs followed by evaluation of cell viability. […] Effective concentrations to reduce 50% growth compared to healthy controls were calculated using standard curve fitting software.

Data set [2] concerns IMR-05 neuroblastoma xenograft. The data set is described as follows: In vivo biodistribution in IMR-05 neuroblastoma xenograft model. Further details: species or system nude SHC mice. Conditions: 5 μCi intravenously; for tumor versus normal tissue distribution of activity: 2 hrs. On the procedure:
To evaluate the in vivo biodistribution of [211A]-Compound 1, an IMR-05 neuroblastoma xenograft model in nude SHC mice was utilized. Xenografts were generated by the subcutaneous injection of 5-10 million IMR-05 neuroblastoma cells. Tumors were then allowed to engraft for 3-4 weeks when they reached 200-300 mm^3. Animals were then intravenously injected with 5 μCi of [211At]-Compound 1 and tissues were harvested at time points of […], 1 and 2 hrs. Samples were then assayed for radioactivity on a gamma counter and data was normalized to percent injected dose by divining the amount of radioactivity in the tissue by the total amount injected. […] Tissue was then flash frozen and 20 micron thick sections were produced using a cryotome. Sections were then exposed to phosphor films and films were read on a digital phosphorimager.

On to `O=C1NCCn2c(-c3ccc([211At])cc3)nc3cccc1c32` [[^211At]-Compound 1], for which the “increase in phosphorylation of ATM and H2AX (DNA double strand breaks) compared to control” value in data set [1] came to 98%. The specificity of cytotoxicity entry with neuroblastoma cell lines is on record as “PARP-1 specific”. In data set [2], the “significant deastatination (accumulation of activity in lung, thyroid (neck), or stomach)” value is on record as “not observed” and the “tumor versus normal tissue distribution of activity” value is given as “concentration of activity in the tumor”. Further, the “tumor versus normal tissue distribution of activity” value in data set [2] (listed as 211At-Compound 1) is “higher tumor to tissue ratios in the majority of normal organs”.

(Values after patent publication US11161865B2, “Radiolabeled and fluorescent PARP inhibitors for imaging and radiotherapy” (THE TRUSTEES OF THE UNIVERSITY OF PENNSYLVANIA, priority 2017, dated 2021).)
